The record followed here is patent US5719145A, “Amidine derivatives and platelet aggregation inhibitor containing the same” (Mitsui Toatsu Chemicals, Inc., priority 1996, dated 1998).

One may read the IC50 as the point on the concentration scale where inhibition reaches its midpoint.

Test [1] has as its system guinea pig platelets (platelet-rich plasma). Kind of test: In vitro inhibition of platelet aggregation in guinea pig (ADP-induced, PRP). The format is cell-based. Conditions: Cavia porcellus, ADP final concentration 5 μM, read-out: Platelet aggregation inhibitory activity in guinea pig, IC50. The procedure:
In vitro experiment of platelet aggregation inhibition
1. Inhibition of platelet aggregation in Guinea pig
Blood of male guinea pig was collected with an injection syringe which contains 3.8 % sodium citrate as an anticoagulant in a ratio of 1 volume to 9 volumes of the blood. Successively, the collected blood mixture was subjected to centrifugation at 120×g for 15 minutes at room temperature to obtain platelet-rich plasma (PRP). An aliquot of PRP was further subjected to centrifugation at 1,200×g for 15 minutes to obtain platelet-poor plasma (PPP). Numbers of the platelet in PRP were measured with an automatic platelet counter: Sysmex PL-100 (manufactured by Toa Iyodenshi Co.) and PRP was diluted with PPP so as to adjust a platelet concentration to be about 300,000 particles/ μl. Platelet aggregation was measured by the following procedure with a 6 channel aggregometer: HEMA TRACER 1 (manufactured by NKK Co.).
After incubation of 240 μl of PRP at 37° C. for 2 minutes, 30 μl of the solvent of specimen as a control or of the specimen in various concentrations was added to PRP. Further 2 minutes later, 30 μl of adenosine diphosphate (final concentration: 5μM) was added to induce platelet aggregation. An inhibition percentage was obtained by comparing the maximum aggregation of the specimen drug group with that of control. […]

For test [2] the test system is unchanged. Briefly: Inhibition against platelet aggregation ability after oral administration in guinea pig. Type of test: in vivo. Conditions: Cavia porcellus, 1 h, oral administration: 37 μmol/kg, blood collected after an hour, ADP 5 μM, read-out: Aggregation inhibiting rate (%). The procedure:
Experiment for inhibition against platelet aggregation ability after oral administration The specimen drug was dissolved or suspended at a concentration of 18.5 μmol/ml in a physiological saline containing 0.5% of Tween 80. […] A physiological saline containing 0.5% of Tween 80 was similarly administered as a control. […] The blood mixture was centrifuged at 800 r.p.m. for 20 minutes at room temperature to obtain PRP in the upper layer. The lower layer was further centrifuged at 3000 r.p.m. for 15 minutes to obtain PPP in upper layer. […] Platelet aggregation ability was measured according to the method for measuring in vitro platelet aggregation. […] HEMA TRACER 1 (manufactured by NKK Co.). After incubation of PRP at 37° C. for 2 minutes, a physiological saline (30 μl) was added. […] An inhibiting ratio was obtained by comparing the maximum aggregation of the specimen drug group with that of control.

Test [3] concerns human platelets (platelet-rich plasma). Briefly: In vitro inhibition of platelet aggregation in human (ADP-induced, PRP). The format is cell-based. Conditions: ADP final concentration 5 μM, read-out: Platelet aggregation inhibitory activity in human, IC50. On the procedure:
2. Inhibition of platelet aggregation in human
Blood was collected from healthy human volunteers with an injection syringe and mixed one volume of 3.8% of sodium citrate as an anticoagulant to 9 volumes of the blood. Successively, the obtained blood mixture was subjected to centrifugation at 120×g for 15 minutes at room temperature to obtain platelet-rich plasma (PRP). An aliquot of PRP was further subjected to centrifugation at 1,200×g for 20 minutes to obtain platelet-poor plasma (PPP). Numbers of the platelet were measured with an automatic platelet counter: Sysmex PL-100 (manufactured by Toa Iyodenshi Co.) and PRP was diluted with PPP so as to adjust a platelet concentration to be about 250,000 particles/μl. Platelet aggregation was measured by the following procedure with a 6 channel aggregometer: HEMA TRACER 1 (manufactured by NKK Co.)
After incubation of 240 μl of PRP at 37° C. for 2 minutes, 30 μl of the solvent of specimen as a control or the specimen in various concentrations was added to PRP. Further 2 minutes later, 30 μl of adenosine diphosphate (final concentration: 5 μM) was added to induce platelet aggregation. An inhibition percentage was obtained by comparing the maximum aggregation of the specimen drug group with that of control. […]

Counter-ions that a name gives are not always drawn.

Take `CCOC(=O)CC1CCc2ccc(NC(=O)c3ccc(C(=N)NCc4cccnc4)cc3)cc2C1` (stereo not shown) [Example 40, ethyl 7-[[4-[N^2-(3-picolyl)amidino]benzoyl]amino]-1,2,3,4-tetrahydronaphthalene-2-acetatedihydrochloride]: the concentration for half-maximal inhibition (IC50) in test [1] came to 110 nM. Moreover, the inhibition at 37 µmol/kg in test [2] was more than 90%.

For `CCOC(=O)CC1CCc2ccc(NC(=O)c3ccc(C(=N)N4CCCCC4)cc3)cc2C1` (stereo not shown) [Example 17, ethyl 7-[[4-(piperidinoiminomethyl)benzoyl]amino]-1,2,3,4-tetrahydronaphthalene-2-acetate hydrochloride], the half-maximal inhibitory concentration (IC50) in test [1] amounted to 270 nM. In test [2], the inhibition at 37 µmol/kg was more than 90%.

With `N=C(c1ccc(C(=O)Nc2ccc3c(c2)CC(CC(=O)O)CO3)cc1)N1CCOCC1` (stereo not shown) [Example 5, 6-[[4-(morpholinoiminomethyl)benzoyl]amino]chroman-3-acetic acid hydrochloride], the IC50 in test [3] was 66 nM.

With `C#CCN(C)C(=N)c1ccc(C(=O)Nc2ccc3c(c2)CC(CC(=O)O)CC3)cc1` (stereo not shown) [Example 35, 7-[[4-(N^2-methyl-N^2-propargylamidino)benzoyl]amino]-1,2,3,4-tetrahydronaphthalene-2-acetic acid hydrochloride], in test [3], the IC50 was 160 nM.

Regarding `CCOC(=O)CC1CCc2ccc(NC(=O)c3ccc(C(=N)N4CCCC4)cc3)cc2C1` (stereo not shown) [Example 21, ethyl 7-[[4-(pyrrolidinoiminomethyl)benzoyl]amino]-1,2,3,4-tetrahydronaphthalene-2-acetate hydrochloride], the IC50 in test [1] came out at 94 nM. In test [2], the inhibition at 37 µmol/kg was more than 90%.

On to `CN1CCN(C(=N)c2ccc(C(=O)Nc3ccc4c(c3)CC(CC(=O)O)CC4)cc2)CC1` (stereo not shown) [Example 15, dihydrochloride], for which the IC50 in test [3] turned out to be 110 nM.

`N=C(NCc1ccco1)c1ccc(C(=O)Nc2ccc3c(c2)CN(CC(=O)O)CC3)cc1` [Example 33, 7-[[4-[N^2-(2-furfuryl)amidino]benzoyl]amino]-1,2,3,4-tetrahydroisoquinoline-2-acetic acid dihydrochloride]: in test [3], the concentration for half-maximal inhibition (IC50) was 160 nM.

For the compound `CCOC(=O)CC1CCc2ccc(NC(=O)c3ccc(C(=N)N4CCN(C)CC4)cc3)cc2C1` (stereo not shown) [Example 14, ethyl 7-[[4-(4-methylpiperazinoiminomethyl)benzoyl]amino]-1,2,3,4-tetrahydronaphthalene-2-acetate dihydrochloride], the IC50 in test [1] turned out to be 66 nM. Also, in test [2], the inhibition at 37 µmol/kg was more than 90%.

Take `CCOC(=O)CC1COc2ccc(NC(=O)c3ccc(C(=N)NCc4ccco4)cc3)cc2C1` (stereo not shown) [Example 31, ethyl 6-[[4-[N^2-(2-furfuryl)amidino]benzoyl]amino]chroman-3-acetate hydrochloride]: the concentration for half-maximal inhibition (IC50) in test [1] amounted to 140 nM. Also, the inhibition at 37 µmol/kg in test [2] is more than 90%.

In the case of `CCOC(=O)CC1CCc2ccc(NC(=O)c3ccc(C(=N)NCc4ccco4)cc3)cc2C1` (stereo not shown) [Example 29, ethyl 7-[[4-[N^2-(2-furfuryl)amidino]benzoyl]amino]-1,2,3,4-tetrahydronaphthalene-2-acetate hydrochloride], the inhibition at 37 µmol/kg in test [2] was more than 90%.

On to `N=C(c1ccc(C(=O)Nc2ccc3c(c2)OCC(CC(=O)O)C3)cc1)N1CCOCC1` (stereo not shown) [Example 9, 7-[[4-(morpholinoiminomethyl)benzoyl]amino]chroman-3-acetic acid hydrochloride], for which the half-inhibitory concentration (IC50) in test [3] amounted to 171 nM.

`CCOC(=O)CN1CCc2ccc(NC(=O)c3ccc(C(=N)N)cc3)cc2C1` [Reference example 5, ethyl 7-[(4-amidinobenzoyl)amino]-1,2,3,4-tetrahydroisoquinoline-2-acetate dihydrochloride, reference compound]: in test [2], the inhibition at 37 µmol/kg is 10%.

Consider `CCOC(=O)CC1COc2cc(NC(=O)c3ccc(C(=N)N)cc3)ccc2C1` (stereo not shown) [Reference Example 7, ethyl 7-[(4-amidinobenzoyl)amino]chroman-3-acetate hydrochloride, reference compound], for which the inhibition at 37 µmol/kg in test [2] stood at 24%.

As for `CCOC(=O)CC1CCc2ccc(NC(=O)c3ccc(C(=N)N4CCSCC4)cc3)cc2C1` (stereo not shown) [Example 12, ethyl 7-[[4-(thiomorpholinoiminomethyl)benzoyl]amino]-1,2,3,4-tetrahydronaphthalene-2-acetate hydrochloride], in test [2], the inhibition at 37 µmol/kg was more than 90%.

For the compound `C#CCNC(=N)c1ccc(C(=O)Nc2ccc3c(c2)CC(CC(=O)OCC)CO3)cc1` (stereo not shown) [Example 26, ethyl 6-[[4-(N^2-propargylamidino)benzoyl]amino]chroman-3-acetate hydrochloride], the concentration for half-maximal inhibition (IC50) in test [1] worked out at 190 nM. Besides, the inhibition at 37 µmol/kg in test [2] was more than 90%.

Consider `C#CCNC(=N)c1ccc(C(=O)Nc2ccc3c(c2)CC(CC(=O)OCC)CO3)cc1` (single isomer, unassigned) [Example 49, ethyl (-)-6-[[4-(N^2-propargylamidino)benzoyl]amino]chroman-3-acetate hydrochloride], for which the inhibition at 37 µmol/kg in test [2] is more than 90%.

On to `CCOC(=O)CC1CCc2ccc(NC(=O)c3ccc(C(=N)NCc4ccccn4)cc3)cc2C1` (stereo not shown) [Example 38, ethyl 7-[[4-[N^2-(2-picolyl)amidino]benzoyl]amino]-1,2,3,4-tetrahydronaphthalene-2-acetatedihydrochloride], for which the inhibition at 37 µmol/kg in test [2] is more than 90%.

For the compound `CCOC(=O)CC1CCc2ccc(NC(=O)c3ccc(C(=N)N4CCCCCC4)cc3)cc2C1` (stereo not shown) [Example 22, ethyl 7-[[4-(homopiperidinoiminomethyl)benzoyl]amino]-1,2,3,4-tetrahydronaphthalene-2-acetate hydrochloride], the half-inhibitory concentration (IC50) in test [1] was found to be 250 nM. Besides, the inhibition at 37 µmol/kg in test [2] was more than 90%.

For `CCOC(=O)CC1CCc2ccc(NC(=O)c3ccc(C(=N)N4CCOCC4)cc3)cc2C1` (stereo not shown) [Example 1, ethyl 7-[[4-(morpholinoiminomethyl)benzoyl]amino]-1,2,3,4-tetrahydronaphthalene-2-acetate hydrochloride], the IC50 in test [1] worked out at 180 nM. Also, the inhibition at 37 µmol/kg in test [2] was more than 90%.

In the case of `CCOC(=O)CC1CCc2ccc(NC(=O)c3ccc(C(=N)N)cc3)cc2C1` (stereo not shown) [Reference Example 1, ethyl 7-[(4-amidinobenzoyl)amino]-1,2,3,4-tetrahydronaphthalene-2-acetate hydrochloride, reference compound], the inhibition at 37 µmol/kg in test [2] was 41%.

As to `C#CCNC(=N)c1ccc(C(=O)Nc2ccc3c(c2)CC(CC(=O)O)CO3)cc1` (stereo not shown) [Example 27, 6-[[4-(N^2-propargylamidino)benzoyl]amino]chroman-3-acetic acid hydrochloride], the IC50 in test [3] was found to be 78 nM.

As to `CCCN=C(N)c1ccc(C(=O)Nc2ccc3c(c2)CC(CC(=O)OCC)CC3)cc1` (stereo not shown) [Reference Example 9, ethyl 7-[[4-[N^2-(n-propyl)amidino]benzoyl]amino]-1,2,3,4-tetrahydronaphthalene-2-acetate hydrochloride, reference compound], in test [1], the half-inhibitory concentration (IC50) is 520 nM. Also, the inhibition at 37 µmol/kg in test [2] turned out to be 3%.

Turning to `CCCCOC(=O)N=C(N)c1ccc(C(=O)Nc2ccc3c(c2)CC(CC(=O)OCC)CC3)cc1` (stereo not shown) [Reference Example 10, ethyl 7-[[4-[N^1-(n-butoxycarbonyl)amidino]benzoyl]amino]-1,2,3,4-tetrahydronaphthalene-2-acetate, reference compound], in test [2], the inhibition at 37 µmol/kg turned out to be 59%.

With `CCOC(=O)CC1COc2ccc(NC(=O)c3ccc(C(=N)N4CCOCC4)cc3)cc2C1` (stereo not shown) [Example 4, ethyl 6-[[4-(morpholinoiminomethyl)benzoyl]amino]chroman-3-acetate hydrochloride], the IC50 in test [1] is 120 nM. For the same compound, the inhibition at 37 µmol/kg in test [2] was more than 90%.
